Publication PMC9181698 (International Journal of Molecular Sciences, 2022)
“Also recorded” adds a separate entry of the source. Residues, ends and D or L forms follow the SMILES beside them.

Experiments:
[1] = molecular target: T1, ACE2–RBD interaction (wt SARS-CoV-2 spike protein RBD-Fc / His-tagged hACE2) (Severe acute respiratory syndrome coronavirus 2, UniProt P0DTC2); assay: SARS-CoV-2 spike protein RBD–hACE2 inhibition assay (ELISA), wt RBD; assay type: biochemical; conditions: individual helices of LCB1
T1 construct: SARS-CoV-2 spike protein RBD-Fc fusion protein; Fc fusion; purchased Sino Biological

neutrophil elastase [2] = molecular target: T2, neutrophil elastase (Homo sapiens, UniProt P08246); assay type: in vitro ADME; conditions: neutrophil elastase 5.5 µg/mL in Tris buffer 0.1 M + NaCl 0.5 M pH 7.8, enzyme pre-incubated 15 min at 37 °C, peptide 100 µM, 60 min, LC-MS (Figure 4C,D)
T2 construct: purchased Abcam
T2 sequence (P08246 30-267): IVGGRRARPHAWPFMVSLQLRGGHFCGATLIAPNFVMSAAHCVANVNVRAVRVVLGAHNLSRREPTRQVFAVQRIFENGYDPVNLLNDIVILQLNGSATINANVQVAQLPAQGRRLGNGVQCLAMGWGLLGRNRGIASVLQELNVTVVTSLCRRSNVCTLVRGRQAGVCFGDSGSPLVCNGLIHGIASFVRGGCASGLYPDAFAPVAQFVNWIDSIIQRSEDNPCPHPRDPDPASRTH
Experimental: (§1) The enzymes (pepsin, Ph.Eur. grade, Carl Roth GmbH, and neutrophil elastase, 20–22 U/mg, Abcam, respectively) were diluted to 5.5 µg/mL in TFA 10 mM (pepsin) or Tris buffer 0.1 M + NaCl 0.5 M pH 7.8 (neutrophil elastase) and pre-incubated for 15 min at 37 °C. Peptides were added at 100 µM and incubated at 37 °C. A sample of 40 µL was taken after 60 min of incubation and the reaction was stopped by adding 5 µL sodium carbonate solution (1 M, pepsin) and 5 µL TFA (neutrophil elastase), respectively. After 10 min, 60 µL acetonitrile/water 50:50 containing 1% TFA were added, and the resulting solution was analyzed by LC-MS (conditions: Phenomenex Kinetex 2.6 μm C18 100 Å column, 50 × 2.1 mm, flow rate 0.55 mL/min, gradient of acetonitrile in H2O (both containing 0.1% TFA, 20–60% over 20 min)).

pepsin [3] = molecular target: T3, pepsin (Sus scrofa, UniProt P00791); assay type: in vitro ADME; conditions: pepsin 5.5 µg/mL in TFA 10 mM, enzyme pre-incubated 15 min at 37 °C, peptide 100 µM, 60 min, LC-MS (Figure 4A,B)
T3 construct: purchased Carl Roth GmbH
T3 sequence (P00791 60-385): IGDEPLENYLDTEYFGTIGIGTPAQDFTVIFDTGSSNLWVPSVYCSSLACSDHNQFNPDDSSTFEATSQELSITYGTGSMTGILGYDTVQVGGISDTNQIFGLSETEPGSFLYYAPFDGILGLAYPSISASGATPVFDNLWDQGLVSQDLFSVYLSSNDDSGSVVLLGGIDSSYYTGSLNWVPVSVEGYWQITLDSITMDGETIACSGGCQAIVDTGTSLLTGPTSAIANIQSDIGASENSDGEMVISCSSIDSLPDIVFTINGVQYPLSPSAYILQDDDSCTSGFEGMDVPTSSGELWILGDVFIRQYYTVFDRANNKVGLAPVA
Experimental: as §1

neutrophil elastase [4] = assay: neutrophil elastase, 20–22 U/mg, Abcam, diluted to 5.5 µg/mL in Tris buffer 0.1 M + NaCl 0.5 M pH 7.8; conditions: 37 °C, up to 60 min
pepsin [5] = assay: pepsin, Ph.Eur. grade, Carl Roth GmbH, diluted to 5.5 µg/mL in TFA 10 mM; conditions: 37 °C, up to 60 min

CC[C@H](C)[C@H](NC(=O)[C@H](Cc1c[nH]c2ccccc12)NC(=O)[C@H](CCC(=O)O)NC(=O)[C@H](CCCCN)NC(=O)[C@H](CC(=O)O)NC(=O)COCCOCCNC(=O)CCCC[C@@H]1SC[C@@H]2NC(=O)N[C@@H]21)C(=O)N[C@@H](CC(C)C)C(=O)N[C@@H](CCC(N)=O)C(=O)N[C@@H](CCCCN)C(=O)N[C@H](C(=O)N[C@@H](Cc1ccc(O)cc1)C(=O)N[C@@H](CCC(=O)O)C(=O)N[C@H](C(=O)N[C@@H](CCSC)C(=O)N[C@@H](CCCNC(=N)N)C(=O)N[C@@H](CC(C)C)C(=O)N[C@@H](CC(C)C)C(=O)N[C@@H](CC(=O)O)C(=O)N[C@@H](CCC(=O)O)C(=O)N[C@@H](CC(C)C)C(N)=O)[C@@H](C)CC)[C@@H](C)CC [LW25.5] (HELM PEPTIDE1{[O=C1N[C@H]2[C@H](CS[C@H]2CCCCC(=O)[*:2])N1].[O=C(COCCOCCN[*:1])[*:2]].D.K.E.W.I.L.Q.K.I.Y.E.I.M.R.L.L.D.E.L.[am]}$$$$V2.0)
Inhibitory activity on the ACE2–RBD interaction (in words) [1]: completely inactive

CC[C@H](C)[C@H](NC(=O)[C@H](CC(C)C)NC(=O)[C@H](CC(=O)O)NC(=O)[C@H](CO)NC(=O)[C@@H](NC(=O)[C@H](CCCNC(=N)N)NC(=O)[C@H](CCSC)NC(=O)[C@H](CO)NC(=O)[C@H](C)NC(=O)[C@H](CCC(=O)O)NC(=O)[C@H](C)NC(=O)[C@H](Cc1c[nH]cn1)NC(=O)CNC(=O)COCCOCCNC(=O)CCCC[C@@H]1SC[C@@H]2NC(=O)N[C@@H]21)C(C)C)C(=O)N[C@@H](Cc1ccc(O)cc1)C(=O)N[C@@H](CCC(=O)O)C(=O)N[C@@H](Cc1ccccc1)C(=O)N[C@@H](CCSC)C(=O)N[C@@H](CCCCN)C(=O)N[C@@H](CCCCN)C(=O)NCC(N)=O [LW25.6] (HELM PEPTIDE1{[O=C1N[C@H]2[C@H](CS[C@H]2CCCCC(=O)[*:2])N1].[O=C(COCCOCCN[*:1])[*:2]].G.H.A.E.A.S.M.R.V.S.D.L.I.Y.E.F.M.K.K.G.[am]}$$$$V2.0)
Inhibitory activity on the ACE2–RBD interaction (in words) [1]: completely inactive

CC[C@H](C)[C@@H]1NC(=O)[C@H](CC(C)C)NC(=O)[C@H](CC(=O)O)NC(=O)[C@H](CO)NC(=O)[C@H](C(C)C)NC(=O)[C@H](CCCNC(=N)N)NC(=O)[C@H](CCSC)NC(=O)[C@H](CO)NC(=O)[C@H](C)NC(=O)[C@H](CCC(=O)O)NC(=O)[C@H](C)NC(=O)[C@H](Cc2c[nH]cn2)NC(=O)CNC(=O)[C@H](CC(C)C)NC(=O)[C@H](CCC(=O)O)NC(=O)[C@H](CC(=O)O)NC(=O)[C@H](CC(C)C)NC(=O)[C@H](CC(C)C)NC(=O)[C@H](CCCNC(=N)N)NC(=O)[C@H](CCSC)NC(=O)[C@H]([C@@H](C)CC)NC(=O)[C@H](CCC(=O)O)NC(=O)[C@H](Cc2ccc(O)cc2)NC(=O)[C@H]([C@@H](C)CC)NC(=O)[C@H](CCCCN)NC(=O)[C@H](CCC(N)=O)NC(=O)[C@H](CC(C)C)NC(=O)[C@H]([C@@H](C)CC)NC(=O)[C@H](Cc2c[nH]c3ccccc23)NC(=O)[C@H](CCC(=O)O)NC(=O)[C@@H](NC(=O)COCCOCCNC(=O)CCCC[C@@H]2SC[C@@H]3NC(=O)N[C@@H]32)CSSC[C@@H](C(N)=O)NC(=O)[C@H](CCCCN)NC(=O)[C@H](CCCCN)NC(=O)[C@H](CCSC)NC(=O)[C@H](Cc2ccccc2)NC(=O)[C@H](CCC(=O)O)NC(=O)[C@H](Cc2ccc(O)cc2)NC1=O [LW25.13]
Stability towards neutrophil elastase (in words) (neutrophil elastase [2]): still largely intact | Susceptibility to proteolytic degradation by pepsin (in words) (pepsin [3]): largely stable

CC[C@H](C)[C@H](NC(=O)[C@H](CC(C)C)NC(=O)[C@H](CC(=O)O)NC(=O)[C@H](CO)NC(=O)[C@@H](NC(=O)[C@H](CCCNC(=N)N)NC(=O)[C@H](CCSC)NC(=O)[C@H](CO)NC(=O)[C@H](C)NC(=O)[C@H](CCC(=O)O)NC(=O)[C@H](C)NC(=O)[C@H](Cc1c[nH]cn1)NC(=O)CNC(=O)[C@H](CC(C)C)NC(=O)[C@H](CCC(=O)O)NC(=O)[C@H](CC(=O)O)NC(=O)[C@H](CC(C)C)NC(=O)[C@H](CC(C)C)NC(=O)[C@H](CCCNC(=N)N)NC(=O)[C@H](CCSC)NC(=O)[C@@H](NC(=O)[C@H](CCC(=O)O)NC(=O)[C@H](Cc1ccc(O)cc1)NC(=O)[C@@H](NC(=O)[C@H](CCCCN)NC(=O)[C@H](CCC(N)=O)NC(=O)[C@H](CC(C)C)NC(=O)[C@@H](NC(=O)[C@H](Cc1c[nH]c2ccccc12)NC(=O)[C@H](CCC(=O)O)NC(=O)[C@H](CCCCN)NC(=O)[C@H](CC(=O)O)NC(=O)COCCOCCNC(=O)CCCC[C@@H]1SC[C@@H]2NC(=O)N[C@@H]21)[C@@H](C)CC)[C@@H](C)CC)[C@@H](C)CC)C(C)C)C(=O)N[C@@H](Cc1ccc(O)cc1)C(=O)N[C@@H](CCC(=O)O)C(=O)N[C@@H](Cc1ccccc1)C(N)=O [LW32.4]
Stability towards neutrophil elastase (in words) (neutrophil elastase [2]): rapidly hydrolyzed | Susceptibility to proteolytic degradation by pepsin (in words) (pepsin [3]): hydrolyzed only at position L31

Biotin-Aoa-DKEWILQKIYEIMRLLDELGHAEASMRVSDLIYEF-NH2
cleaved bond (neutrophil elastase [4]): A-S, 60 min; also recorded: S-M, 60 min | cleaved bond (pepsin [5]): L31-I32, 60 min

Biotin-Aoa-[^3 CEWILQKIYEIMRLLDELGHAEASMRVSDLIYEFMKKC]-NH2
not cleaved (neutrophil elastase [4]): still largely intact after 60 min exposure to the enzyme | not cleaved (pepsin [5]): largely stable towards pepsin for at least 60 min
